Measured values: patent US8232287B2, “Pyrimidyl indoline compound” (Daiichi Sankyo Company, Limited, priority 2007, dated 2012)

Test system: Mice C57/BL6J
Assay: Oral glucose tolerance test (oGTT) using mice
Assay type: in vivo
Conditions: Mus musculus, 2 h; blood glucose AUC vs vehicle-administered group; fasted male C57/BL6J mice; 1 mg/ml suspension in 0.5% methylcellulose given orally 30 min before oral glucose load; plasma glucose at pre, 15, 30, 60, 120 min; read-out: Rate of decrease in AUC (%)
Experimental: Oral Glucose Tolerance Test (oGTT) Using Mice
2.0 to 8.0 mg of a test compound was weighed and then placed in an agate mortar. While the compound was pulverized, a 0.5% methylcellulose solution was added thereto to prepare a 1 mg/ml suspension. Mice C57/BL6J (6- to 8-week-old male) were purchased from Charles River Laboratories Japan Inc. and raised in a cage until they became 9- to 13-week-old. The mice were fasted after 5 to 6 p.m. of the day before the test. On the test day, blood was collected from the tail vein, and the preceding prepared suspension was orally administered to each of the mice. Thirty minutes after administration, blood was further collected from the tail vein (plasma glucose level in this blood was used as a pre-value), and a 20 to 30% glucose solution was then orally administered thereto at a dose of 10 ml/kg for glucose load. After the glucose load, blood was further collected from the tail vein at time points 15, 30, 60, and 120 minutes. The collected blood was centrifuged to separate plasma. The pre-value and plasma glucose levels at 15, 30, 60, and 120 minutes after the glucose load were measured using Glucoroder GXT (Shino-Test Corp.), and the rate of decrease in blood glucose AUC (%) from a vehicle-administered group was calculated. To this vehicle-administered group, a 0.5% methylcellulose solution was administered instead of the suspension of the compound.

C[S+]([O-])c1ccc2c(c1)CCN2c1cc(OC2CCN(C(=O)OC(C)(C)C)CC2)ncn1 (stereo not drawn) [Example 80, tert-butyl 4-({6-[5-(methylsulfinyl)indolin-1-yl]pyrimidin-4-yl}oxy)piperidine-1-carboxylate] gave an inhibition in vivo at 1000 µg/mL of 19%.

Work on CC(C)CC(=O)N1CCC(Oc2cc(N3CCc4cc(S(C)(=O)=O)ccc43)ncn2)CC1 [Example 92, 1-(6-{[1-(3-methylbutanoyl)piperidin-4-yl]oxy}pyrimidin-4-yl)-5-(methylsulfonyl)indoline] yielded an inhibition in vivo at 1000 µg/mL of 16%.

With CCS(=O)(=O)c1ccc2c(c1)CCN2c1cc(OC2CCN(C(=O)OCC(C)C)CC2)ncn1 [Example 22, isobutyl 4-({6-[5-(ethylsulfonyl)indolin-1-yl]pyrimidin-4-yl}oxy)piperidine-1-carboxylate] the inhibition in vivo at 1000 µg/mL was 21%.

Compound CS(=O)(=O)c1ccc2c(c1)CCN2c1cc(OC2CCN(C(=O)OCC(F)(F)F)CC2)ncn1 [Example 104, 2,2,2-trifluoroethyl 4-({6-[5-(methylsulfonyl)indolin-1-yl]pyrimidin-4-yl}oxy)piperidine-1-carboxylate] has an inhibition in vivo at 1000 µg/mL of 10%.

In the case of CC(C)OC(=O)N1CC[C@H](Oc2cc(N3CCc4cc(S(C)(=O)=O)ccc43)ncn2)[C@H](F)C1 (relative stereo) [Example 117, isopropyl cis-3-fluoro-4-[6-(5-methanesulfonyl-2,3-dihydro-indol-1-yl)-pyrimidin-4-yloxy]-piperidine-1-carboxylate], the inhibition in vivo at 1000 µg/mL was 27%.

Work on CC(C)(C)OC(=O)N1CCC(Oc2cc(N3CCc4cc(S(=O)(=O)CCF)ccc43)ncn2)CC1 [Example 85, tert-butyl 4-[(6-{5-[(2-fluoroethyl)sulfonyl]indolin-1-yl}pyrimidin-4-yl)oxy]piperidine-1-carboxylate] yielded an inhibition in vivo at 1000 µg/mL of 27%.

CC(C)(C)OC(=O)N1CCC(Oc2cc(N3CCc4cc(S(C)(=O)=O)ccc43)ncn2)CC1 [Example 1, tert-butyl 4-({6-[5-(methylsulfonyl)indolin-1-yl]pyrimidin-4-yl}oxy)piperidine-1-carboxylate] showed an inhibition in vivo at 1000 µg/mL of 28%.

For CCS(=O)(=O)c1ccc2c(c1)CCN2c1cc(OC2CCN(C(=O)OCC(F)F)CC2)ncn1 [Example 60, 2,2-difluoroethyl 4-({6-[5-(ethylsulfonyl)indolin-1-yl]pyrimidin-4-yl}oxy)piperidine-1-carboxylate], the inhibition in vivo at 1000 µg/mL was 22%.

Work on COc1c(OC2CCN(C(=O)OC(C)C)CC2)ncnc1N1CCc2cc(S(C)(=O)=O)ccc21 [Example 83, isopropyl 4-({5-methoxy-6-[5-(methylsulfonyl)indolin-1-yl]pyrimidin-4-yl}oxy)piperidine-1-carboxylate] yielded an inhibition in vivo at 1000 µg/mL of 20%.

Compound CC(C)OC(=O)N1CCC(Oc2cc(N3CCc4cc(S(C)(=O)=O)ccc43)ncn2)CC1 [Example 2, isopropyl 4-({6-[5-(methylsulfonyl)indolin-1-yl]pyrimidin-4-yl}oxy)piperidine-1-carboxylate] has an inhibition in vivo at 1000 µg/mL of 22%.

CCS(=O)(=O)c1ccc2c(c1)CCN2c1cc(OC2CCN(C(=O)OC(C)C)CC2)ncn1 [Example 31, isopropyl 4-({6-[5-(ethylsulfonyl)indolin-1-yl]pyrimidin-4-yl}oxy)piperidine-1-carboxylate] showed an inhibition in vivo at 1000 µg/mL of 20%.

CS(=O)(=O)c1ccc2c(c1)CCN2c1cc(OC2CCN(C(=O)OCC3CC3)CC2)ncn1 [Example 44, cyclopropylmethyl 4-({6-[5-(methylsulfonyl)indolin-1-yl]pyrimidin-4-yl}oxy)piperidine-1-carboxylate] was tested, and the inhibition in vivo at 1000 µg/mL was 18%.

For C[S+]([O-])c1ccc2c(c1)CCN2c1cc(OC2CCN(C(=O)OCC(F)(F)F)CC2)ncn1 (stereo not drawn) [Example 116, 2,2,2-trifluoroethyl 4-({6-[5-(methylsulfinyl)indolin-1-yl]pyrimidin-4-yl}oxy)piperidine-1-carboxylate], the inhibition in vivo at 1000 µg/mL was 17%.

CS(=O)(=O)c1ccc2c(c1)CCN2c1cc(OC2CCN(C(=O)Oc3ccc(F)cc3)CC2)ncn1 [Example 93, 4-fluorophenyl 4-({6-[5-(methylsulfonyl)indolin-1-yl]pyrimidin-4-yl}oxy)piperidine-1-carboxylate] gave an inhibition in vivo at 1000 µg/mL of 15%.

Compound C[S+]([O-])c1ccc2c(c1)CCN2c1cc(OC2CCN(C(=O)OCC3CC3)CC2)ncn1 (stereo not drawn) [Example 118, cyclopropylmethyl 4-({6-[5-(methylsulfinyl)indolin-1-yl]pyrimidin-4-yl}oxy)piperidine-1-carboxylate] has an inhibition in vivo at 1000 µg/mL of 16%.
